Patent publication US9458146B2, “Crystalline sodium salt of an HIV integrase inhibitor” (SANDOZ AG, priority 2011, dated 2016)
In brackets after ≈: the same amount, converted by molar mass.

Tests used:
[1] = Solubility and stability of form A in water; assay type: physicochemical; settings: 22±2° C.
Experimental: 104 mg of raltegravir sodium salt form A is suspended in 1.0 ml water and the suspension placed on a laboratory shaker at 22±2° C. for 24 hours at a rate of 400 rpm. After 24 hours shaking the suspension is filtered, the obtained solid investigated by powder X-ray diffraction, and the concentration in the liquid phase is determined by UV-vis spectroscopy.

[2] = Storage of form A at elevated temperature; assay type: physicochemical

Cc1nnc(C(=O)NC(C)(C)c2nc(C(=O)NCc3ccc(F)cc3)c(O)c(=O)n2C)o1 [form A, N-(4-fluorobenzyl)-5-hydroxy-1-methyl-2-(1-methyl-1-{[(5-methyl-1,3,4-oxadiazol-2-yl)carbonyl]amino}ethyl)-6-oxo-1,6-dihydropyrimidine-4-carboxamide]
solubility ([1]; 22 °C, thermodynamic from solid, suspended in water, 24 hours shaking, resulting pH 10.4, UV-vis, read-out: aqueous solubility (concentration in the liquid phase)): 47 ± 5 mg/mL (≈ 106 mM)
crystalline form of the solid after suspension in water (XRPD) ([1]; suspension in water, 24 hours): form A is retained
pH of the liquid phase ([1]; suspension in water, 24 hours): 10.4
crystalline form of the solid after suspension in water (XRPD) ([1]; suspension in water, 24 hours, listed as raltegravir sodium salt form A): crystalline form A is retained
thermal stability on storage [2]: without decomposition
